Measured values published in patent US10647708B2, “Tetrahydroisoquinoline derived PRMT5-inhibitors” (CTXT PTY LTD, priority 2014, dated 2020).

target: Full-length PRMT5 enzyme co-expressed with MEP50 (Homo sapiens (Human), UniProt O14744); experiment: Revised PRMT5 Biochemical Assay; conditions: 1 μM peptide substrate, 1 μM S-Adenosyl methionine, 4 hours at 37 degree Celsius, Transcreener EPIGEN fluorescence polarisation
Method: Compounds of the invention may be tested for in vitro activity in the following assay: A histone H4 derived peptide is used as substrate (amino acid sequence: […]NH2). Full-length PRMT5 enzyme (NCBI Reference sequence NP_006100.2) was co-expressed with Hiss-MEP50 in insect cells and purified via Nickel immobilized metal affinity and gel filtration chromatography (“the enzyme”).
The 6 μL reactions are run in Greiner brand black 384-well low volume assay plates. All reactions contained assay buffer (phosphate buffered saline, 0.01% (v/v) Tween-20, 0.01% (w/v) albumin from chicken egg white, 1 mM Dithiothreitol, 1 μM peptide substrate, 1 μM S-Adenosyl methionine, and 15 ng/reaction enzyme, with the enzyme being omitted from negative control reactions. Compounds were added in a volume of 100 nL from dilution series prepared in DMSO, positive and negative control reactions receiving the same volume DMSO without compound. The plates were sealed with adhesive seals and incubated for 4 hours at 37 degree Celsius. Reaction progress was measured using the Transcreener™ EPIGEN methyltransferase assay (BellBrook Labs, Madison, Wis.) as recommended by the manufacturer. To each reaction 2 μL detection mix were added, containing coupling enzymes, fluorescence polarisation tracer, and AMP antibody. Plates were incubated for 90 minutes before being read on a PerkinElmer EnVision™ plate reader in fluorescence polarisation mode. IC50 values were obtained from the raw readings by calculating percent inhibition (% I) for each reaction relative to controls on the same plate (% I=(I−CN)/(CP−CN) where CN/CP are the averages of the negative/positive reactions, respectively), then fitting the % I data vs. compound concentration [I] to % I=(A+((B−A)/(1+((C/[I])^D)))) where A is the lower asymptote, B is the upper asymptote, C is the IC50 value, and D is the slope.

Sequence of Full-length PRMT5 enzyme co-expressed with MEP50 (O14744 whole entry): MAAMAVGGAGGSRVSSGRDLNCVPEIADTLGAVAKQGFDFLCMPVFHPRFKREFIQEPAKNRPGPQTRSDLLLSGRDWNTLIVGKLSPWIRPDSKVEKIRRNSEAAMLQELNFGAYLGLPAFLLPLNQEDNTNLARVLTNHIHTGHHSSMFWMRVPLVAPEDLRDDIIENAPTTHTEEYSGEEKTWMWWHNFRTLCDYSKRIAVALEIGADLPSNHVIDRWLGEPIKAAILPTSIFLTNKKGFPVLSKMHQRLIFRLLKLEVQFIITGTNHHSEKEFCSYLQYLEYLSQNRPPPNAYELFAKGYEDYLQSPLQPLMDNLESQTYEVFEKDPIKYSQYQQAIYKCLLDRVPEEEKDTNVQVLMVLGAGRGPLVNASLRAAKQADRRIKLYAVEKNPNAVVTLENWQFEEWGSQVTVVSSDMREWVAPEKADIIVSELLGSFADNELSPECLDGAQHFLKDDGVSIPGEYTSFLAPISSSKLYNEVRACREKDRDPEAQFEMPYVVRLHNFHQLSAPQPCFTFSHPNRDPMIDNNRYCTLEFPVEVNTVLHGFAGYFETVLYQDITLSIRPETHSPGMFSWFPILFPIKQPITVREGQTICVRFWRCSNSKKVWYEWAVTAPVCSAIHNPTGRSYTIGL
Sequence of Full-length PRMT5 enzyme co-expressed with MEP50 (Q9BQA1 whole entry partner): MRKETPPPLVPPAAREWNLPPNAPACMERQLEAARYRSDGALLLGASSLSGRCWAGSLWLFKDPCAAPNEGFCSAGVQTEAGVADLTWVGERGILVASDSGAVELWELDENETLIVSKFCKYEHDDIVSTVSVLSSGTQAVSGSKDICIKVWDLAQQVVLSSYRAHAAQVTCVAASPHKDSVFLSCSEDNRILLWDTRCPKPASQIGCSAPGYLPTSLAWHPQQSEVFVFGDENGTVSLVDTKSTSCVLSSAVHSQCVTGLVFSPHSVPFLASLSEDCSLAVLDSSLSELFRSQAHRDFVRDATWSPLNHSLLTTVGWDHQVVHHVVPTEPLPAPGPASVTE

| Compound | IC50 [µM] |
| --- | --- |
| Cc1nonc1COc1ccc(C(=O)NCCC(O)CN2CCc3ccccc3C2)cc1 (stereo not shown) [Compound 10] | 3.98 |
| Cc1nnc(-c2ccc(C(=O)NCCC(O)CN3CCc4ccccc4C3)cc2)o1 (stereo not shown) [Compound 42] | 2.83 |
| O=C(NCCC(O)CN1CCc2ccccc2C1)c1ccc(OC(F)F)cc1 (stereo not shown) [Compound 21] | 0.415 |
| O=C(NCCC(O)CN1CCc2ccccc2C1)c1ccc2c(c1)OC(F)(F)O2 (stereo not shown) [Compound 23] | 1.69 |
| COc1ccc(-n2cc(C(=O)NCCC(O)CN3CCc4ccccc4C3)cn2)cc1 (stereo not shown) [Compound 7] | 1.94 |
| O=C(NCCC(O)CN1CCc2ccccc2C1)c1ccnn1-c1cccnc1 (stereo not shown) [Compound 38] | 2.88 |
| O=C(NCCC(O)CN1CCc2ccccc2C1)c1ccc(S(=O)(=O)C(F)(F)F)cc1 (stereo not shown) [Compound 2] | 1.13 |
| O=C(NCCC(O)CN1CCc2ccccc2C1)c1cccc(-c2ccccc2)c1 (stereo not shown) [Compound 41] | 5.29 |
| Cc1nn(C)cc1-c1cc(C(=O)NCCC(O)CN2CCc3ccccc3C2)no1 (stereo not shown) [Compound 36] | 1.2 |
| O=C(NCCC(O)CN1CCc2ccccc2C1)c1ccc(N2CCOCC2)nc1 (stereo not shown) [Compound 14] | 0.91 |
| O=C(NCCC(O)CN1CCc2ccccc2C1)c1cccnc1 (stereo not shown) [Compound 17] | 15 |
| N#Cc1cccc(C(=O)NCCC(O)CN2CCc3ccccc3C2)c1 (stereo not shown) [Compound 16] | 13 |
| CS(=O)(=O)c1ccccc1OCC(=O)NCCC(O)CN1CCc2ccccc2C1 (stereo not shown) [Compound 4] | 51.7 |
| O=C(NCCC(O)CN1CCc2ccccc2C1)c1coc(-c2ccccc2)n1 (stereo not shown) [Compound 35] | 1.21 |
| O=C(NCCC(O)CN1CCc2ccccc2C1)c1cncc(Cl)n1 (stereo not shown) [Compound 43] | 106 |
| Cc1c(C(=O)NCCC(O)CN2CCc3ccccc3C2)cnn1-c1ccccn1 (stereo not shown) [Compound 33] | 7.45 |
| O=C(NCCC(O)CN1CCc2ccccc2C1)c1ccc(S(F)(F)(F)(F)F)cc1 (stereo not shown) [Compound 20] | 0.214 |
| O=C(NCCC(O)CN1CCc2ccccc2C1)c1ccnc(Cl)c1 (stereo not shown) [Compound 44, 2-Chloro-N-(4-(3,4-dihydroisoquinolin-2(1H)-yl)-3-hydroxybutyl)isonicotinamide] | 13.7 |
| CS(=O)(=O)c1ccc(C(=O)NCCC(O)CN2CCc3ccccc3C2)cc1 (stereo not shown) [Compound 22] | 7.02 |
| O=C(NCCC(O)CN1CCc2ccccc2C1)c1cccc(-c2ccnnc2)c1 (stereo not shown) [Compound 25] | 6.35 |
| O=C(NCCC(O)CN1CCc2ccccc2C1)c1ccc(OC(F)(F)F)cc1 (stereo not shown) [Compound 19] | 0.319 |
| O=C(NCCC(O)CN1CCc2ccccc2C1)c1ccc(N2CCCCC2=O)cc1 (stereo not shown) [Compound 6] | 13.1 |

| Compound | IC50 [µM] |
| --- | --- |
| Cc1cccc(C(=O)NCCC(O)CN2CCc3ccccc3C2)n1 (stereo not shown) [Compound 24] | 25.4 |
| Cc1nnc(-c2cccc(C(=O)NCCC(O)CN3CCc4ccccc4C3)c2)o1 (stereo not shown) [Compound 39] | 1.22 |
| O=C(NCCC(O)CN1CCc2ccccc2C1)c1ccc(-c2ccccc2)cc1 (stereo not shown) [Compound 40] | 0.769 |
| O=C(NCCC(O)CN1CCc2ccccc2C1)c1cccc(Cl)c1 (stereo not shown) [Compound 18] | 9.79 |
| O=C(NCCC(O)CN1CCc2ccccc2C1)c1cccc(C(=O)N2CCOCC2)c1 (stereo not shown) [Compound 45, N-(4-(3,4-dihydroisoquinolin-2(1H)-yl)-3-hydroxybutyl)-3-(morpholine-4-carbonyl)benzamide] | 5.23 |
| COc1ccc(-c2cc(C(=O)NCCC(O)CN3CCc4ccccc4C3)on2)cc1 (stereo not shown) [Compound 8] | 3.09 |
| CC(=O)N1CCC(Nc2cc(C(=O)NCCC(O)CN3CCc4ccccc4C3)ccn2)CC1 (stereo not shown) [Compound 46] | 0.186 |
| C[S+]([O-])c1ccc(C(=O)NCCC(O)CN2CCc3ccccc3C2)cc1 (stereo not shown) [Compound 26] | 3.75 |
| O=C(NCCC(O)CN1CCc2ccccc2C1)c1ccn(Cc2ccccc2)c(=O)c1 (stereo not shown) [Compound 12] | 1.59 |
| Cc1c(C(=O)NCCC(O)CN2CCc3ccccc3C2)cnn1-c1ccncc1 (stereo not shown) [Compound 13] | 7.09 |
| Cn1cc(-c2cc(C(=O)NCCC(O)CN3CCc4ccccc4C3)no2)cn1 (stereo not shown) [Compound 37] | 1.19 |
| COc1ccc(C(=O)NCCC(O)CN2CCc3ccccc3C2)cc1-c1cncnc1 (stereo not shown) [Compound 27] | 5.62 |
| O=C(NCCC(O)CN1CCc2ccccc2C1)c1nnc(-c2ccccc2)o1 (stereo not shown) [Compound 11] | 39.2 |
| O=C(NCCC(O)CN1CCc2ccccc2C1)c1cnn(-c2ccccn2)c1 (stereo not shown) [Compound 28] | 12.3 |
| O=C(NCCC(O)CN1CCc2ccccc2C1)c1ccc(C(=O)N2CCC2)cc1 (stereo not shown) [Compound 31] | 3.16 |
| Cn1ccc(C(=O)NCCC(O)CN2CCc3ccccc3C2)cc1=O (stereo not shown) [Compound 29] | 10.8 |
| O=C(NCCC(O)CN1CCc2ccccc2C1)c1ccc2oc(=O)[nH]c2c1 (stereo not shown) [Compound 9] | 4.35 |
| O=C(NCCC(O)CN1CCc2ccccc2C1)c1ccc(C(=O)N2CCCC2)cc1 (stereo not shown) [Compound 30] | 3.12 |
| O=C(NCCC(O)CN1CCc2ccccc2C1)c1ccc([S+]([O-])C(F)(F)F)cc1 (stereo not shown) [Compound 3] | 0.925 |
| CN(C)C(=O)c1ccc(C(=O)NCCC(O)CN2CCc3ccccc3C2)cc1 (stereo not shown) [Compound 32] | 3.54 |
| O=C(NCCC(O)CN1CCc2ccccc2C1)c1noc(-c2ccccc2)n1 (stereo not shown) [Compound 34] | 56.1 |
| O=C(NCCC(O)CN1CCc2ccccc2C1)c1ccc(C(F)(F)F)cc1 (stereo not shown) [Compound 5] | 1.33 |

system: symmetrical dimethylation of arginine (Histone H4 Arginine 3) in cell line TE11; experiment: Revised PRMT5 Biomarker Assay; format: cell-based; conditions: Homo sapiens, TE-11; TE11 cells, 72 hours incubation, anti-Di-Methyl Histone H4 Arginine 3 immunofluorescence, plate-reader based
Method: Compounds of the invention may be tested for potency to inhibit symmetrical dimethylation of arginine in the following assay:
The cell line TE11 was seeded at a density of 6,000 cells per well in 96 well optical quality tissue culture plates in DME medium and 10% foetal bovine serum, and allowed to adhere for 5 hours under standard culture conditions (37 degree Celsius, 5% CO2). Compound dilutions prepared in DMSO were added to the medium, with negative control wells reserved for treatment with DMSO only and positive controls receiving a potent PRMT5 inhibitor compound at 1 μM concentration. After incubation for 72 hours, the cells were fixed with 3.7% formaldehyde in PBS for 30 minutes at room temperature, washed with phosphate buffer saline and blocked with Odyssey blocking buffer (LI-COR, Lincoln, Nebr.). Rabbit anti-Di-Methyl Histone H4 Arginine 3 specific antibody (Epigentek) in Odyssey blocking buffer was added and incubated for 14 hours at 4 degree Celsius. After washing, anti-rabbit secondary antibody labelled with Alexa647 dye (LifeTechnologies) and Hoechst 33342 (1 μg/mL, SigmaAldrich) were added for 1 hour incubation. Plates were washed and read on a PerkinElmer Envision 2103 in fluorescence intensity scanning mode (24 scans across the well area). The methylation level information was corrected for the number of cells as expressed by the Hoechst 33342 stain, converted to percent inhibition relative to controls on the same plate and the data fitted against a four-parameter logistic model to determine the 50% inhibitory concentration (IC50 plate-reader based). Alternatively, the plates were imaged on a PerkinElmer Phenix high content imaging platform. Using a Columbus image analysis pipeline, individual nuclei were located by Hoechst 33342 stain and the methylation level was calculated from the Alexa647-related intensity in the same area. The resulting mean intensity per cell was directly converted to percent inhibition as outlined above (IC50, imager based)).

| Compound | IC50 [µM] |
| --- | --- |
| Cc1nn(C)cc1-c1cc(C(=O)NCCC(O)CN2CCc3ccccc3C2)no1 (stereo not shown) [Compound 36] | 0.023 |
| O=C(NCCC(O)CN1CCc2ccccc2C1)c1ccc(S(F)(F)(F)(F)F)cc1 (stereo not shown) [Compound 20] | 0.505 |
| O=C(NCCC(O)CN1CCc2ccccc2C1)c1ccc(OC(F)(F)F)cc1 (stereo not shown) [Compound 19] | 0.089 |
| O=C(NCCC(O)CN1CCc2ccccc2C1)c1ccc(-c2ccccc2)cc1 (stereo not shown) [Compound 40] | 0.048 |

same assay, conditions: TE11 cells, 72 hours incubation, anti-Di-Methyl Histone H4 Arginine 3 immunofluorescence, plate-reader based

| Compound | IC50 [µM] |
| --- | --- |
| CC(=O)N1CCC(Nc2cc(C(=O)NCCC(O)CN3CCc4ccccc4C3)ccn2)CC1 (stereo not shown) [Compound 46] | 0.007 |
